Patent publication US20260263452A1, “ONCOLOGY COMBINATION THERAPY AND METHODS OF USE” (BeyondSpring Pharmaceuticals, Inc., priority 2023, published 2026)

Test system: MDA-MB-231 human breast cancer
Test: MDA-MB-231 human breast cancer SubQ xenograft model in BALB/c nude mice
Format: in vivo
Conditions: Day 38, abemaciclib 50 mg/kg PO QD, plinabulin 7.5 mg/kg IP BIW; for mean tumor volume: n=8 per group, vehicle control 1235±24 mm^3
Method: The anti-tumor activity of plinabulin as a single agent compared to co-administration with abemaciclib was evaluated in an MDA-MB-231 human breast cancer SubQ xenograft model in BALB/c nude mice. Plinabulin was provided as a 4 mg/mL solution in 40% Solutol, 60% Propylene Glycol. […] Abemaciclib was provided as a crystalline solid. Prior to dosing, an appropriate amount of abemaciclib solid was weighed out and dissolved in 1% hydroxyethyl cellulose in 25 mM phosphate buffer, pH=2, to a concentration of 5 mg/mL to deliver a dose of 50 mg/kg in a 10 mL/kg dosing volume. […] The vehicle control was dosed intraperitoneally at a 10 mL/kg dose volume. The MDA-MB-231 human breast tumor cell line was maintained in L-15 medium supplemented with 10% FBS at 37° C. in an atmosphere of 100% air. Cells were sub-cultured upon reaching about 90% confluence by trypsin-EDTA treatment. Cells in an exponential growth phase were harvested using a trypsin-EDTA mixture. Female BALB/c nude mice were received at 6-8 weeks of age. All mice were acclimated for 7 days prior to study initiation. The mice were housed in housed in polycarbonate cages and maintained under specific pathogen-free conditions. The mice were fed irradiated dry granule food and sterile drinking water was freely available. Mice were inoculated subcutaneously on the right flank with 0.1 mL of L-15 medium/Martigel (1:1) mixture containing a suspension of 1×10^7 cells/mouse of live MDA-MB-231 tumor cells. […] Twenty-eight days following inoculation, thirty-two mice with tumor sizes of 101-124 mm^3 were randomized into four groups of eight mice, each with a mean tumor size of 114 mm^3. Tumor volumes and body weights were recorded when the mice were randomized and were taken twice weekly thereafter. Clinical observations were made daily. Dosing was performed via intraperitoneal injection for vehicle control and plinabulin and administered via oral gavage for abemaciclib as described below in Table 1. Plinabulin was administered one hour post dose of abemaciclib on combined dosing days. [table] […] All mice are included in the TGI calculations. [formula] All statistical analyses in the xenograft study are performed with GraphPad Prism software. p≤0.05 was considered statistically significant. […] A two-tailed Student's t-test with Welch's correction was also used to verify any differences between each group and the vehicle control, as well as single agents and their respective combination groups.

Row | Compound | TGI (tumor growth inhibition) compared to the Vehicle Control group [%] | mean tumor volume [mm^3]
1 | CCN1CCN(Cc2ccc(Nc3ncc(F)c(-c4cc(F)c5nc(C)n(C(C)C)c5c4)n3)nc2)CC1 [abemaciclib] | 59 | 572±101
2 | CC(C)(C)c1[nH]cnc1/C=c1\[nH]c(=O)/c(=C/c2ccccc2)[nH]c1=O [plinabulin, (3Z,6Z)-3-benzylidene-6-{[5-(2-methyl-2-propanyl)-1H-imidazol-4-yl]methylene}-2,5-piperazinedione] | 26 | 942±114
